Each molecule was assayed against T1, P2X purinoceptor 7 (Homo sapiens, UniProt Q99572) (assay: SUPPLEMENTARY: Inhibition of human P2X7 receptor assessed as inhibition of ethidium bromide accumulation. Same assay as CHEMBL1103860).
T1 sequence (Q99572 whole entry): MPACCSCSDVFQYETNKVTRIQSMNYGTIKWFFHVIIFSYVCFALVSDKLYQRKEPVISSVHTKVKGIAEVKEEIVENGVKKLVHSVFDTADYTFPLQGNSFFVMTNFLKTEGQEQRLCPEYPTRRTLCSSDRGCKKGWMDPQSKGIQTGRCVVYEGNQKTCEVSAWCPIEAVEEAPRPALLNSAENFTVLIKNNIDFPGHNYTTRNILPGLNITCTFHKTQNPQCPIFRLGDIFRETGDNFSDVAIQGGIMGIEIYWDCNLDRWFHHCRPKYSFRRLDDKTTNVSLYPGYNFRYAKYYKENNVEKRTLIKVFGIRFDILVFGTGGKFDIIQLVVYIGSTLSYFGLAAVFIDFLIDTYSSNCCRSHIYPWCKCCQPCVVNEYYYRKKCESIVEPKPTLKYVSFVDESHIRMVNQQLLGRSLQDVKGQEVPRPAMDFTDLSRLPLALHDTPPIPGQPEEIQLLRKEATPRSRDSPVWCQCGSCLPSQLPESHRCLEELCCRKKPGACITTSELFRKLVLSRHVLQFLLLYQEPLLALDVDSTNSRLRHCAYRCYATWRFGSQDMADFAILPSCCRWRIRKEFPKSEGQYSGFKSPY

IC50 [nM]	SMILES
25.1	Cc1c(N2CCCC2)cccc1N1CCN(Cc2ccc(F)cc2Cl)C(=O)C1=O
7.94	Cc1ccc(N2C[C@@H](C(=O)NCc3cccc(C(F)(F)F)c3Cl)N(C)C2=O)c(C)n1
15.8	Cc1ccc(N2C[C@@H](C(=O)NCc3ccc(Cl)cc3Cl)N(C)C2=O)c(C)n1
63.1	Cc1ccc(N2C[C@@H](C(=O)NCc3ccc(F)cc3Cl)N(C)C2=O)c(C)n1
25.1	COc1c(N2CCOCC2)cccc1N1CCN(Cc2ccc(F)cc2Cl)C(=O)C1=O
31.6	Cc1cccc(C(=O)N2CCN(c3ccc(F)cc3Cl)C(=O)C2)c1Cl
12.6	CCN(CC)c1ccc(N2CCN(Cc3ccc(F)cc3Cl)C(=O)C2=O)c(C)c1
20	COc1cccc(OC)c1N1CCN(Cc2ccc(F)cc2Cl)C(=O)C1=O
63.1	O=C(c1ccc(Cl)cc1F)N1CCN(c2ccc(F)cc2Cl)C(=O)C1
63.1	O=C(c1c(Cl)cccc1Cl)N1CCN(c2ccc(F)cc2Cl)C(=O)C1
10	CC(C)Oc1cc(F)ccc1N1CCN(C(=O)c2cccc(C(F)(F)F)c2Cl)CC1=O
15.8	CC(C)Oc1cc(F)ccc1N1CCN(C(=O)c2cccc(Cl)c2Cl)CC1=O
7.94	CN1C(=O)N(c2cn(C)cn2)C[C@H]1C(=O)NCc1ccc(Cl)cc1Cl
25.1	C[C@@H]1CN(Cc2ccc(Cl)cc2Cl)C(=O)C(=O)N1c1ccccc1
39.8	O=C(c1ccc(F)c(F)c1Cl)N1CCN(c2ccc(F)cc2Cl)C(=O)C1
316	O=C(c1cccc(F)c1F)N1CCN(c2ccc(F)cc2Cl)C(=O)C1
631	O=C(c1c(F)ccc(F)c1Cl)N1CCN(c2ccc(F)cc2Cl)C(=O)C1
158	O=C(c1cccc(Cl)c1F)N1CCN(c2ccc(F)cc2Cl)C(=O)C1
100	O=C(c1ccc(F)c(Cl)c1F)N1CCN(c2ccc(F)cc2Cl)C(=O)C1
63.1	CN1CCN(C(=O)c2cccc(C(F)(F)F)c2Cl)CC1=O
251	CN1CCN(C(=O)c2ccc(Cl)cc2Cl)CC1=O
10	CN1C(=O)N(c2cncn2C)C[C@H]1C(=O)NCc1ccc(Cl)cc1Cl
5.01	CN1C(=O)N(c2cncn2C)C[C@H]1C(=O)NCc1cccc(C(F)(F)F)c1Cl
501	CN1CCN(C(=O)c2ccc(F)cc2Cl)CC1=O
3.98	N#Cc1cc(F)ccc1N1CCN(C(=O)c2cccc(Cl)c2Cl)CC1=O

IC50 [nM]	SMILES
50.1	CN1C(=O)N(c2cc(C(F)(F)F)ncn2)C[C@H]1C(=O)NCc1ccc(F)c(F)c1Cl
31.6	CN1C(=O)N(c2cc(C(F)(F)F)ncn2)C[C@H]1C(=O)NCc1ccc(Cl)cc1Cl
31.6	CN1C(=O)N(c2cc(C(F)(F)F)ncn2)C[C@H]1C(=O)NCc1cccc(C(F)(F)F)c1Cl
50.1	CC(C)CN1CCN(C(=O)c2cccc(Cl)c2Cl)CC1=O
251	O=C(c1ccc(F)cc1Cl)N1CCN(c2ccc(F)cc2Cl)C(=O)C1
631	Cc1cccc(C(=O)N2CCN(C)C(=O)C2)c1Cl
126	CCN1CCN(C(=O)c2cccc(C(F)(F)F)c2Cl)CC1=O
200	O=C1CN(C(=O)c2cccc(C(F)(F)F)c2Cl)CCN1CC(F)(F)F
100	CC(C)N1CCN(C(=O)c2cccc(C(F)(F)F)c2Cl)CC1=O
316	COCCN1CCN(C(=O)c2cccc(C(F)(F)F)c2Cl)CC1=O
12.6	COc1ccc(I)cc1N1CCN(C(=O)c2cccc(C(F)(F)F)c2Cl)CC1=O
200	CC(C)CN1CCN(C(=O)c2cccc(C(F)(F)F)c2Cl)CC1=O
20	CN1C(=O)N(c2ccc(F)nc2)C[C@H]1C(=O)NCc1ccc(Cl)cc1Cl
7.94	CN1C(=O)N(c2ccc(F)nc2)C[C@H]1C(=O)NCc1cccc(C(F)(F)F)c1Cl
6.31	Cc1c(Br)cccc1N1CCN(C(=O)c2cccc(C(F)(F)F)c2Cl)CC1=O
79.4	O=C1CN(C(=O)c2cccc(C(F)(F)F)c2Cl)CCN1CC1CCCCC1
6.31	CCC(CC)N1CCN(C(=O)c2cccc(C(F)(F)F)c2Cl)CC1=O
12.6	O=C1CN(C(=O)c2cccc(C(F)(F)F)c2Cl)CCN1CC1CC1
50.1	CCCN1CCN(C(=O)c2cccc(C(F)(F)F)c2Cl)CC1=O
316	O=C1CN(C(=O)c2cccc(C(F)(F)F)c2Cl)CCN1Cc1ccncc1
15.8	CN1C[C@@H](C(=O)NCc2ccc(Cl)cc2Cl)N(CC(F)(F)F)C1=O
1.58	CCN1C(=O)N(C)C[C@H]1C(=O)NCc1ccc(Cl)cc1Cl
0.794	CCN1C(=O)N(C)C[C@H]1C(=O)NCc1cccc(C(F)(F)F)c1Cl
7.94	CCN1C(=O)N(C)C[C@H]1C(=O)NCc1ccc(F)cc1Cl
15.8	COc1ccc(N2C[C@@H](C(=O)NCc3ccc(Cl)cc3Cl)N(C)C2=O)cn1

IC50 [nM]	SMILES
7.94	COc1ccc(N2C[C@@H](C(=O)NCc3cccc(C(F)(F)F)c3Cl)N(C)C2=O)cn1
100	O=C(c1cccc(C(F)(F)F)c1Cl)N1CCn2ccnc2C1
3.98	N#Cc1cc(F)ccc1N1CCN(C(=O)c2cccc(C(F)(F)F)c2Cl)CC1=O
398	O=C1CN(C(=O)c2cccc(C(F)(F)F)c2Cl)CCN1Cc1cccnc1
15.8	CN1C(=O)N(c2cnccn2)C[C@H]1C(=O)NCc1cccc(C(F)(F)F)c1Cl
5.01	CN1C(=O)N(c2cccnc2Cl)C[C@H]1C(=O)NCc1ccc(Cl)cc1Cl
158	O=C1CN(C(=O)c2cccc(C(F)(F)F)c2Cl)CCN1Cc1ccccn1
200	O=C1CN(C(=O)c2cccc(C(F)(F)F)c2Cl)CCN1CC1CCC1
158	O=C(c1cccc(C(F)(F)F)c1Cl)N1CCN(C2CCCC2)C(=O)C1
79.4	O=C1CN(C(=O)c2cccc(C(F)(F)F)c2Cl)CCN1CC1CCCO1 (stereo not drawn)
39.8	CN1C(=O)NC[C@H]1C(=O)NCc1cccc(C(F)(F)F)c1F
2	Cc1c(CNC(=O)[C@@H]2CNC(=O)N2C)cccc1C(F)(F)F
158	CN1C(=O)NC[C@H]1C(=O)NCc1ccc(Cl)c(C(F)(F)F)c1
10	CN1C(=O)N(c2cccnc2Cl)C[C@H]1C(=O)NCc1ccc(F)c(F)c1Cl
1.58	CN1C(=O)N(c2cccnc2Cl)C[C@H]1C(=O)NCc1cccc(C(F)(F)F)c1Cl
100	CN1C(=O)NC[C@H]1C(=O)NCc1ccc(F)c(C(F)(F)F)c1
20	Cc1c(Cl)cccc1CNC(=O)[C@@H]1CNC(=O)N1C
1.26	Cc1cc(Cl)cc(Cl)c1CNC(=O)[C@@H]1CNC(=O)N1C
31.6	Cc1cc(Cl)ccc1CNC(=O)[C@@H]1CNC(=O)N1C
3.98	CN1C(=O)N(c2ncc(F)cn2)C[C@H]1C(=O)NCc1ccc(Cl)cc1Cl
12.6	CCN1C(=O)NC[C@H]1C(=O)NCc1ccc(Cl)cc1Cl
39.8	CCN1C(=O)NC[C@H]1C(=O)NCc1ccc(F)cc1Cl
3.98	CCN1C(=O)NC[C@H]1C(=O)NCc1cccc(C(F)(F)F)c1Cl
6.31	Cc1c(Cl)cccc1CNC(=O)[C@@H]1CN(C)C(=O)N1C
50.1	CN1C[C@@H](C(=O)NCc2ccc(F)c(C(F)(F)F)c2)N(C)C1=O

IC50 [nM]	SMILES
2.51	CN1C[C@@H](C(=O)NCc2ccc(F)c(Cl)c2Cl)N(C)C1=O
50.1	CN1C[C@@H](C(=O)NCc2ccc(Cl)c(C(F)(F)F)c2)N(C)C1=O
1	CN1C[C@@H](C(=O)NCc2ccc(F)c(C(F)(F)F)c2Cl)N(C)C1=O
39.8	O=C(c1cccc(C(F)(F)F)c1Cl)N1CCn2cc(C(F)(F)F)nc2C1
794	O=C(c1ccc(Cl)cc1Cl)N1CCn2cc(C(F)(F)F)nc2C1
20	COc1ccnc(N2C[C@@H](C(=O)NCc3ccc(Cl)cc3Cl)N(C)C2=O)n1
0.794	Cc1cc(Cl)cc(Cl)c1CNC(=O)[C@@H]1CN(C)C(=O)N1C
6.31	CN1C(=O)N(c2ncc(Cl)cn2)C[C@H]1C(=O)NCc1ccc(Cl)cc1Cl
316	N#CCCN1CCN(C(=O)c2cccc(C(F)(F)F)c2Cl)CC1=O
251	CC(C#N)N1CCN(C(=O)c2cccc(C(F)(F)F)c2Cl)CC1=O (stereo not drawn)
25.1	Cc1ccc(N2C[C@@H](C(=O)NCc3ccc(Cl)cc3Cl)N(C)C2=O)cn1
31.6	Cc1ccc(N2C[C@@H](C(=O)NCc3ccc(F)c(F)c3Cl)N(C)C2=O)cn1
15.8	CN1C[C@@H](C(=O)NCc2ccc(Cl)cc2Cl)N(CC(F)F)C1=O
1.26	Cc1c(CNC(=O)[C@@H]2CN(C)C(=O)N2C)cccc1C(F)(F)F
7.94	Cc1cc(Cl)ccc1CNC(=O)[C@@H]1CN(C)C(=O)N1C
31.6	CN1C(=O)N(c2ccnc(F)c2)C[C@H]1C(=O)NCc1ccc(Cl)cc1Cl
31.6	CN1C[C@@H](C(=O)NCc2ccc(C#N)cc2Cl)N(C)C1=O
12.6	CN1C(=O)N(c2ccnc(F)c2)C[C@H]1C(=O)NCc1ccc(F)c(F)c1Cl
63.1	CN1C(=O)N(c2ccnc(F)c2)C[C@H]1C(=O)NCc1cccc(C(F)(F)F)c1Cl
158	CC(C)c1ccnc(N2C[C@@H](C(=O)NCc3ccc(Cl)cc3Cl)N(C)C2=O)n1
2	CN1C(=O)N(c2ncccc2F)C[C@H]1C(=O)NCc1ccc(Cl)cc1Cl
2.51	CN1C(=O)N(CC(F)F)C[C@H]1C(=O)NCc1ccc(Cl)cc1Cl
10	CN1C(=O)N(c2ccnn2C)C[C@H]1C(=O)NCc1ccc(Cl)cc1Cl

— ChEMBL document CHEMBL2218064, “Structure-activity relationship data for chemical series of antagonists of the P2X7 receptor (Supplementary Bioactivity Data for publication CHEMBL1157114)”
